Measured values reported in patent publication US9617216B2, “Antifungal oxodihydropyridinecarbohydrazide derivative” (Daewoong Pharmaceutical Co., Ltd., priority 2013, dated 2017).
Values after ≈ are worked out from the molar mass of the structure shown.

Test system: Candida albicans
Test: In vitro antifungal activity test (MIC), Candida albicans
Format: cell-based
Conditions: Candida albicans; concentration at which growth is inhibited by 80% vs negative control; 35° C., 24 hours, RPMI 1640, alama blue
Description: The antifungal activities of the compounds of the present invention were evaluated using Candida albicans as yeast fungus, and Aspergillus fumigatus as a filamentous fungus. The above fungi used were all purchased from American Type Culture Collection (ATCC). The strains used in the experiment were inoculated into a Sabouraud dextrose agar medium, and then cultured at 35° C. for a sufficient period of time, e.g., 24 hours for Candida albicans, and about 7 days for Aspergillus fumigatus. As for Candida albicans, about 5 to 7 single colonies were taken from the cultured medium, sufficiently suspended in 1 ml of 0.85% sterile saline solution, and adjusted to have an optical density of 0.095 to 0.107 at 530 nm. A preparation of a strain diluent was diluted in Roswell park memorial institute (RPMI) 1640 medium at a 1:10 ratio, and the resultant was diluted again at a 1:100 ratio to obtain an inoculation preparation for Candida albicans with a concentration of 1.0×10^3 to 5.0×10^3 CFU/mL. As for Aspergillus fumigatus, the cultured Sabouraud dextrose agar was added with 1 mL of 0.2% Tween 20 diluted with 0.85% sterile saline solution, and then the plate was shaken to detach conidium from the plate. The solution collected from the plate surface was transferred into a sterile tube, and placed at room temperature for 5 minutes to deposit heavy substances. The resulting supernatant was transferred into the sterile tube, sufficiently suspended for about 15 seconds, and prepared a strain diluent with a concentration of 0.4×10^6 to 5.0×10^6 CFU/mL using a hemocytometer. The thus prepared strain diluent was diluted in RPMI 1640 medium at a 1:100 ratio to obtain an inoculation preparation for Aspergillus fumigatus. Candida albicans was cultured at 35° C. for 24 hours and Aspergillus fumigatus was cultured at 35° C. for 48 hours, and the concentrations, at which growth is inhibited by 80% or 50% compared to a negative control group, were determined using alama blue color developing reagent. All experiments were repeated twice for each concentration, and the results of antifungal activities (MIC80 MIC50 μg/mL) are shown in Tables 1 to 2.

| SMILES | MIC80 [µg/mL] |
| --- | --- |
| O=C(NNc1cccc(F)c1)c1ccc(=O)n(CCN2CCN(c3ccc(C(F)(F)F)cc3)CC2)c1 [Example 55, N′-(3-fluorophenyl)-6-oxo-1-(2-(4-(4-(trifluoromethyl)phenyl)piperazin-1-yl)ethyl)-1,6-dihydropyridine-3-carbohydrazide] | 0.2 (≈ 0.397 µM) |
| O=C(NNc1ccc(F)cc1)c1ccc(=O)n(CCN2CCN(c3ccc(C(F)(F)F)cc3)CC2)c1 [Example 56, N′-(4-fluorophenyl)-6-oxo-1-(2-(4-(4-(trifluoromethyl)phenyl)piperazin-1-yl)ethyl)-1,6-dihydropyridine-3-carbohydrazide] | 0.79 (≈ 1.57 µM) |
| O=C(NNc1ccc(F)c(F)c1)c1ccc(=O)n(Cc2ccc(C(F)(F)F)nc2)c1 [Example 52, N′-(3,4-difluorophenyl)-6-oxo-1-((6-(trifluoromethyl)pyridine-3-yl)methyl)-1,6-dihydropyridine-3-carbohydrazide] | 0.08 (≈ 0.189 µM) |
| CN(C)C(=O)Cn1cc(C(=O)NNc2cccc(F)c2)ccc1=O [Example 75, 2-(5-(2-(3-fluorophenyl)hydrazine-1-carbonyl)-2-oxopyridine-1(2H)-yl)-N,N-dimethylacetamide] | 0.26 (≈ 0.782 µM) |
| Cn1cc(C(=O)NNc2ccc(F)cc2F)cc(Cl)c1=O [Example 30, 5-chloro-N′-(2,4-difluorophenyl)-1-methyl-6-oxo-1,6-dihydropyridine-3-carbohydrazide] | 0.31 (≈ 0.988 µM) |
| Cn1cc(C(=O)NNc2cccc(C#N)c2)cc(Cl)c1=O [Example 28, 5-chloro-N′-(3-cyanophenyl)-1-methyl-6-oxo-1,6-dihydropyridine-3-carbohydrazide] | 0.12 (≈ 0.396 µM) |
| O=C(NNc1cccc(F)c1)c1ccc(=O)n(CCOc2cccc(C(F)(F)F)c2)c1 [Example 63, N′-(3-fluorophenyl)-6-oxo-1-(2-(3-(trifluoromethyl)phenoxy)ethyl)-1,6-dihydropyridine-3-carbohydrazide] | 0.09 (≈ 0.207 µM) |
| O=C(NNc1cccc(F)c1)c1ccc(=O)n(CCOc2ccc(Cl)cc2Cl)c1 [Example 64, 1-(2-(2,4-dichlorophenoxy)ethyl)-N′-(3-fluorophenyl)-6-oxo-1,6-dihydropyridine-3-carbohydrazide] | 0.09 (≈ 0.206 µM) |
| CN(C)C(=O)Cn1cc(C(=O)NNc2ccc(F)cc2)ccc1=O [Example 77, 2-(5-(2-(4-fluorophenyl)hydrazinecarbonyl)-2-oxopyridine-1(2H)-yl)-N,N-dimethylacetamide] | 1.04 (≈ 3.13 µM) |
| O=C(NNc1cccc(F)c1)c1ccc(=O)n(CC2CCCCC2)c1 [Example 66, 1-(cyclohexylmethyl)-N′-(3-fluorophenyl)-6-oxo-1,6-dihydropyridine-3-carbohydrazide] | 0.27 (≈ 0.786 µM) |
| Cn1cc(C(=O)NNc2cccc(C(F)(F)F)c2)ccc1=O [Example 8, 1-methyl-6-oxo-N′-(3-(trifluoromethyl)phenyl)-1,6-dihydropyridine-3-carbohydrazide] | 0.24 (≈ 0.771 µM) |
| Cn1cc(C(=O)NNc2ccc(F)nc2F)ccc1=O [Example 19, N′-(2,6-difluoropyridine-3-yl)-1-methyl-6-oxo-1,6-dihydropyridine-3-carbohydrazide] | 0.88 (≈ 3.14 µM) |
| Cn1cc(C(=O)NNc2cccc(C#N)c2)ccc1=O [Example 6, N′-(3-cyanophenyl)-1-methyl-6-oxo-1,6-dihydropyridine-3-carbohydrazide] | 0.1 (≈ 0.373 µM) |
| O=C(NNc1ccc(F)cc1)c1ccc(=O)n(CC2CCCCC2)c1 [Example 67, 1-(cyclohexylmethyl)-N′-(4-fluorophenyl)-6-oxo-1,6-dihydropyridine-3-carbohydrazide] | 0.27 (≈ 0.786 µM) |
| O=C(NNc1cccc(F)c1)c1ccc(=O)n(Cc2ccc(C(F)(F)F)nc2)c1 [Example 50, N′-(3-fluorophenyl)-6-oxo-1-((6-(trifluoromethyl)pyridine-3-yl)methyl)-1,6-dihydropyridine-3-carbohydrazide] | 0.08 (≈ 0.197 µM) |
| Cn1cc(C(=O)NNc2ccc(F)c(F)c2)ccc1=O [Example 12, N′-(3,4-difluorophenyl)-1-methyl-6-oxo-1,6-dihydropyridine-3-carbohydrazide] | 0.22 (≈ 0.788 µM) |
| Cn1cc(C(=O)NNc2ccc(C(F)(F)F)cc2)ccc1=O [Example 9, 1-methyl-6-oxo-N′-(4-(trifluoromethyl)phenyl)-1,6-dihydropyridine-3-carbohydrazide] | 1.95 (≈ 6.26 µM) |
| O=C(NNc1cccc(F)c1)c1ccc(=O)n(CCOc2ccccc2F)c1 [Example 61, 1-(2-(2-fluorophenoxy)ethyl)-N′-(3-fluorophenyl)-6-oxo-1,6-dihydropyridine-3-carbohydrazide] | 0.08 (≈ 0.208 µM) |
| Cn1cc(C(=O)NNc2ccc(F)cc2)cc(Cl)c1=O [Example 25, 5-chloro-N′-(4-fluorophenyl)-1-methyl-6-oxo-1,6-dihydropyridine-3-carbohydrazide] | 0.23 (≈ 0.778 µM) |
| Cn1cc(C(=O)NNc2ccc(F)cc2)c(Nc2ccc(C(F)(F)F)cc2)cc1=O [Example 36, N′-(4-fluorophenyl)-1-methyl-6-oxo-4-((4-(trifluoromethyl)phenyl)amino)-1,6-dihydropyridine-3-carbohydrazide] | 1.31 (≈ 3.12 µM) |
| Cn1cc(C(=O)NNc2ccc(C#N)cc2)cc(Cl)c1=O [Example 29, 5-chloro-N′-(4-cyanophenyl)-1-methyl-6-oxo-1,6-dihydropyridine-3-carbohydrazide] | 0.47 (≈ 1.55 µM) |
| Cn1cc(C(=O)NNc2ccc(F)c(Cl)c2)ccc1=O [Example 17, N′-(3-chloro-4-fluorophenyl)-1-methyl-6-oxo-1,6-dihydropyridine-3-carbohydrazide] | 0.12 (≈ 0.406 µM) |
| Cn1cc(C(=O)NNc2cc(F)cc(F)c2)cc(Cl)c1=O [Example 32, 5-chloro-N′-(3,5-difluorophenyl)-1-methyl-6-oxo-1,6-dihydropyridine-3-carbohydrazide] | 0.03 (≈ 0.0956 µM) |

Other lines, results leading:

| MIC80 [µg/mL] | SMILES |
| --- | --- |
| 0.14 (≈ 0.379 µM) | O=C(NNc1cccc(F)c1)c1ccc(=O)n(CCc2ccc(F)cc2)c1 [Example 60, 1-(4-fluorophenethyl)-N′-(3-fluorophenyl)-6-oxo-1,6-dihydropyridine-3-carbohydrazide] |
| 0.24 (≈ 0.786 µM) | COCCn1cc(C(=O)NNc2ccc(F)cc2)ccc1=O [Example 78, N′-(4-fluorophenyl)-1-(2-methoxyethyl)-6-oxo-1,6-dihydropyridine-3-carbohydrazide] |
| 0.13 (≈ 0.381 µM) | O=C(NNc1cccc(F)c1)c1ccc(=O)n(-c2ccc(F)cc2)c1 [Example 44, N′-(3-fluorophenyl)-1-(4-fluorophenyl)-6-oxo-1,6-dihydropyridine-3-carbohydrazide] |
| 0.08 (≈ 0.207 µM) | O=C(NNc1cccc(F)c1)c1ccc(=O)n(CCc2cccc(Cl)c2)c1 [Example 57, 1-(3-chlorophenethyl)-N′-(3-fluorophenyl)-6-oxo-1,6-dihydropyridine-3-carbohydrazide] |
| 0.61 (≈ 1.56 µM) | O=C(NNc1ccc(F)cc1)c1ccc(=O)n(-c2ccc(C(F)(F)F)cc2)c1 [Example 45, N′-(4-fluorophenyl)-6-oxo-1-(4-(trifluoromethyl)phenyl)-1,6-dihydropyridine-3-carbohydrazide] |
| 0.05 (≈ 0.18 µM) | Cn1cc(C(=O)NNc2ccc(Cl)cc2)ccc1=O [Example 5, N′-(4-chlorophenyl)-1-methyl-6-oxo-1,6-dihydropyridine-3-carbohydrazide] |
| 0.11 (≈ 0.396 µM) | Cn1cc(C(=O)NNc2cccc(Cl)c2)ccc1=O [Example 4, N′-(3-chlorophenyl)-1-methyl-6-oxo-1,6-dihydropyridine-3-carbohydrazide] |
| 0.16 (≈ 0.398 µM) | O=C(NNc1cccc(F)c1)c1ccc(=O)n(CCOc2ccc(Cl)cc2)c1 [Example 62, 1-(2-(4-chlorophenoxy)ethyl)-N′-(3-fluorophenyl)-6-oxo-1,6-dihydropyridine-3-carbohydrazide] |
| 0.1 (≈ 0.383 µM) | Cn1cc(C(=O)NNc2ccc(F)cc2)ccc1=O [Example 3, N′-(4-fluorophenyl)-1-methyl-6-oxo-1,6-dihydropyridine-3-carbohydrazide] |
| 0.08 (≈ 0.207 µM) | O=C(NNc1cccc(F)c1)c1ccc(=O)n(CCc2ccc(Cl)cc2)c1 [Example 58, 1-(4-chlorophenethyl)-N′-(3-fluorophenyl)-6-oxo-1,6-dihydropyridine-3-carbohydrazide] |
| 0.56 (≈ 1.57 µM) | O=C(NNc1ccc(F)cc1)c1ccc(=O)n(-c2cccc(Cl)c2)c1 [Example 47, 1-(3-chlorophenyl)-N′-(4-fluorophenyl)-6-oxo-1,6-dihydropyridine-3-carbohydrazide] |
| 0.16 (≈ 0.394 µM) | O=C(NNc1ccc(F)cc1)c1ccc(=O)n(Cc2ccc(C(F)(F)F)nc2)c1 [Example 51, N′-(4-fluorophenyl)-6-oxo-1-((6-(trifluoromethyl)pyridine-3-yl)methyl)-1,6-dihydropyridine-3-carbohydrazide] |
| 0.13 (≈ 0.381 µM) | O=C(NNc1cccc(F)c1)c1ccc(=O)n(-c2cccc(F)c2)c1 [Example 43, N′,1-Bis(3-fluorophenyl)-6-oxo-1,6-dihydropyridine-3-carbohydrazide] |
